Experimental data: patent US11466044B2 (WAYNE STATE UNIVERSITY, priority 2017, dated 2022)
Values after ≈ are worked out from the molar mass of the structure shown. “Also recorded” adds a separate entry of the source. Read-outs that look alike come from different tables or passages of the source.

Legend:
[1] = system: cytosolic ribosome (human chimeric); assay type: biochemical; conditions: for Selectivity for Binding to the Bacterial Ribosome over the Cytosolic Ribosome: Table 3 (Example 3)
From the text: (§1) The antiribosomal activity of these compounds was investigated with cell-free translation assays using both wild type bacterial ribosomes and hybrid ribosomes carrying eukaryotic decoding A sites enabling the prediction of selectivity.

[2] = system: mitochondrial ribosome (human chimeric); assay type: biochemical; conditions: for Selectivity for Binding to the Bacterial Ribosome over the Mitochondrial Ribosome: Table 3 (Example 3)
From the text: as §1

MRSA = experiment: MIC by broth microdilution, MRSA isolates; assay type: cell-based; conditions: for MIC MRSA AG038 / MIC MRSA AG039 / MIC MRSA AG042 / MIC: Table 1 (Example 3); for MIC: Staphylococcus aureus, MRSA
[3] = system: A1555G mutant mitochondrial ribosome (human chimeric); experiment: in-vitro translation assay, human chimeric ribosomes, A1555G mutant mitochondrial decoding site; assay type: biochemical; conditions: for IC50: human mitochondrial decoding site with A1555G point mutation, read-out: IC50 Mitoch. A1555G; for Selectivity for Binding to the Bacterial Ribosome over the Mutant Mitochondrial Ribosome: Table 3 (Example 3)
From the text: as §1

[4] = system: E coli carrying specific resistance determinants; experiment: MIC by broth microdilution, E coli carrying specific resistance determinants; assay type: cell-based; conditions: for MIC E. coli AG106 AAC(2′)-Ia / MIC E. coli pGB2armA armA: Table 5 (Example 3); for MIC E coli AG106 AAC(2′): Table 2 (Example 3); for MIC: Escherichia coli
P aeruginosa = experiment: MIC by broth microdilution, P aeruginosa isolates; assay type: cell-based, Pseudomonas aeruginosa
E coli wild type = experiment: MIC by broth microdilution, wild type E coli; assay type: cell-based; conditions: for MIC AG001 E. coli WT: clinical isolate AG001, WT; for antibacterial activity, in words: MRSA and E coli, compared with the parent compound; for MIC AG212 E. coli: strain AG212 E. coli (ATCC25922); for MIC: Escherichia coli
[5] = system: wild type bacterial ribosomes; experiment: in-vitro translation assay, bacterial ribosomes; assay type: biochemical
From the text: as §1

[6] = system: Klebsiella pneumonia AG215; experiment: MIC by broth microdilution, Klebsiella pneumonia; assay type: cell-based; conditions: strain AG215 Klebsiella pneumonia
[7] = system: Acinetobacter baumannii pittii AG225; experiment: MIC by broth microdilution, Acinetobacter baumannii; assay type: cell-based; conditions: strain AG225 Acinetobacter baumannii pittii
M. smegmatis SZ380 = experiment: MIC by broth microdilution, M. smegmatis; conditions: for MIC SZ380 M. smegmatis: strain SZ380 Mycobacterium smegmatis; for MIC: Mycolicibacterium smegmatis
M. abscessus = experiment: MIC by broth microdilution, M. abscessus; assay type: cell-based; conditions: Mycobacteroides abscessus
[8] = system: Enterobacter cloacae AG290; experiment: MIC by broth microdilution, Enterobacter cloacae; assay type: cell-based; conditions: strain AG290 Enterobacter cloacae; read-out: MIC AG290 E. cloacae
[9] = ribosomes with a human cytosolic decoding site, read-out: IC50 Cytosolic
[10] = ribosomes with a human mitochondrial decoding site, read-out: IC50 Mitoch.
[11] = Mycobacterium smegmatis ribosomes, read-out: IC50 Bacterial
[12] = strain AG220 Pseudomonas aeruginosa ATCC27853
[13] = AG006 Wild type, Table 2 (Example 3)
[14] = AG104 Wild type, Table 2 (Example 3)
[15] = clinical isolate AG001, Table 1 (Example 3)
[16] = clinical isolate AG003, Table 1 (Example 3)
[17] = clinical isolate AG055, Table 1 (Example 3)

NCC1OC(OC2C(CO)OC(OC3C(O)C(N)CC(N)C3OC3OC4C(O)CCOC4C(O)C3N)C2O)C(N)C(O)C1O (stereo not drawn) [DC210]
IC50 [1, 9]: 50 µM
IC50 [2, 10]: 329 µM
MIC AG038 MRSA (MRSA; clinical isolate AG038): 4 µg/mL (≈ 6.23 µM)
IC50 [3]: 44 µM
MIC AG036 ANT(4′,4′′) ([4]; E. coli strain AG036, ANT(4′,4′′)): 2 µg/mL (≈ 3.12 µM)
MIC AG037 APH(3′)-III ([4]; E. coli strain AG037, APH(3′)-III): >128 µg/mL
MIC pH421 APH(3)-I ([4]; E. coli strain pH421, APH(3)-I): >128 μg/ml
MIC pH422 APH(3′)-II ([4]; E. coli strain pH422, APH(3′)-II): 32 μg/ml
MIC pH423 APH(3′)-VI ([4]; E. coli strain pH423, APH(3′)-VI): 4 μg/ml
MIC AG031 P. aer. APH(3′)-II (P aeruginosa; clinical isolate AG031, APH(3′)-II): 64 µg/mL (≈ 99.7 µM)
MIC pH430 WT (E coli wild type; E. coli strain pH430, WT): 2-4 μg/ml
MIC AG001 E. coli WT (E coli wild type): 4 µg/mL (≈ 6.23 µM)
IC50 [5, 11]: 0.04 µM

CC(=O)NC1C(OC2C(N)CC(N)C(O)C2OC2OC(CO)C(OC3OC(CN)C(O)C(O)C3N)C2O)OC(CN)C(O)C1O (stereo not drawn) [Compound 183]
Selectivity for Binding to the Bacterial Ribosome over the Cytosolic Ribosome [1]: 28
Selectivity for Binding to the Bacterial Ribosome over the Mitochondrial Ribosome [2]: 18
MIC MRSA AG038 (MRSA; clinical isolate AG038): >32 µg/mL
MIC MRSA AG039 (MRSA; clinical isolate AG039): >32 µg/mL
MIC MRSA AG042 (MRSA; clinical isolate AG042): >32 µg/mL
Selectivity for Binding to the Bacterial Ribosome over the Mutant Mitochondrial Ribosome [3]: 5.2
MIC E. coli AG106 AAC(2′)-Ia [4]: 128 µg/mL (≈ 195 µM)
MIC E coli AG106 AAC(2′) [4]: 128 µg/mL (≈ 195 µM)
MIC E. coli pGB2armA armA [4]: 128-256 μg/ml
MIC AG220 P. aerugin (P aeruginosa; [12]): >32 µg/mL
MIC E coli AG006 Wild type (E coli wild type; [13]): 64 µg/mL (≈ 97.5 µM)
MIC E coli AG104 Wild type (E coli wild type; [14]): 128 µg/mL (≈ 195 µM)
antibacterial activity, in words (E coli wild type): very substantial loss of activity; also recorded: very significantly reduced activity
MIC E. coli WT (E coli wild type; WT, Table 5 (Example 3)): 128 µg/mL (≈ 195 µM)
MIC E coli AG001 (E coli wild type; [15]): >32 µg/mL
MIC E coli AG003 (E coli wild type; [16]): >32 µg/mL
MIC E coli AG055 (E coli wild type; [17]): >32 µg/mL
MIC AG212 E. coli (E coli wild type): >32 µg/mL
MIC AG215 K. pneumon [6]: >32 µg/mL
MIC AG225 A. baumannii [7]: >32 µg/mL
MIC M. smegmatis SZ380 WT (M. smegmatis SZ380; Table 5 (Example 3)): 8 µg/mL (≈ 12.2 µM)
MIC SZ380 M. smegmatis (M. smegmatis SZ380): 8 µg/mL (≈ 12.2 µM)

CC(=O)O.NCC(=O)NC1C(OC2C(N)CC(N)C(O)C2OC2OC(CO)C(OC3OC(CN)C(O)C(O)C3N)C2O)OC(CN)C(O)C1O (stereo not drawn) [Compound 175, 2′-N-(2-Aminoacetyl)-neomycin acetate salt]
Selectivity for Binding to the Bacterial Ribosome over the Cytosolic Ribosome [1]: 155
Selectivity for Binding to the Bacterial Ribosome over the Mitochondrial Ribosome [2]: 67
MIC MRSA AG038 (MRSA; clinical isolate AG038): 4 µg/mL
MIC MRSA AG039 (MRSA; clinical isolate AG039): >32 µg/mL
MIC MRSA AG042 (MRSA; clinical isolate AG042): >32 µg/mL
Selectivity for Binding to the Bacterial Ribosome over the Mutant Mitochondrial Ribosome [3]: 153
MIC E. coli AG106 AAC(2′)-Ia [4]: 16 to 32 µg/mL
MIC E coli AG106 AAC(2′) [4]: 16 to 32 µg/mL
MIC E. coli pGB2armA armA [4]: 16 μg/ml
MIC AG220 P. aerugin (P aeruginosa; [12]): >32 µg/mL
MIC E coli AG006 Wild type (E coli wild type; [13]): 8 µg/mL
MIC E coli AG104 Wild type (E coli wild type; [14]): 16 µg/mL
antibacterial activity, in words (E coli wild type): very substantial loss of activity
MIC E. coli WT (E coli wild type; WT, Table 5 (Example 3)): 8 to 16 µg/mL
MIC E coli AG001 (E coli wild type; [15]): 16 µg/mL
MIC E coli AG003 (E coli wild type; [16]): 32 µg/mL
MIC E coli AG055 (E coli wild type; [17]): 16 µg/mL
MIC AG212 E. coli (E coli wild type): 16 µg/mL
MIC AG215 K. pneumon [6]: 8 µg/mL
MIC AG225 A. baumannii [7]: 8 to 16 µg/mL
MIC M. smegmatis SZ380 WT (M. smegmatis SZ380; Table 5 (Example 3)): 0.25 µg/mL
MIC SZ380 M. smegmatis (M. smegmatis SZ380): 0.25 µg/mL

NCC1OC(OC2C(CO)OC(OC3C(O)C(N)CC(N)C3OC3OC4C(O)COC4C(O)C3N)C2O)C(N)C(O)C1O (stereo not drawn) [DC204]
IC50 [1, 9]: 276 µM
IC50 [2, 10]: 131 µM
MIC AG038 MRSA (MRSA; clinical isolate AG038): 8 µg/mL (≈ 12.7 µM)
IC50 [3]: 117 µM
MIC AG001 E. coli WT (E coli wild type): 16 µg/mL (≈ 25.5 µM)
IC50 [5, 11]: 0.2 µM

NCC1OC(OC2C(CO)OC(OC3C(O)C(N)CC(N)C3OC3OC(CN)C(O)C(O)C3NC=O)C2O)C(N)C(O)C1O (stereo not drawn) [Compound 182, 2′-N-Formamido-neomycin]
Selectivity for Binding to the Bacterial Ribosome over the Cytosolic Ribosome [1]: 1093
IC50 ([1]; cytosolic, Table 4 (Example 3), read-out: IC50 Cyt): 127 µM
Selectivity for Binding to the Bacterial Ribosome over the Mitochondrial Ribosome [2]: 463
IC50 ([2]; mitochondrial, Table 4 (Example 3), read-out: IC50 Mit): 54 µM
MIC (MRSA; clinical isolate AG038, read-out: MIC MRSA AG038): 2 to 4 µg/mL (≈ 3.11 to 6.22 µM)
MIC (MRSA; clinical isolate AG039, read-out: MIC MRSA AG039): > 32 µg/mL
MIC (MRSA; clinical isolate AG042, read-out: MIC MRSA AG042): > 32 µg/mL
Selectivity for Binding to the Bacterial Ribosome over the Mutant Mitochondrial Ribosome [3]: 108
MIC (M. abscessus; ATCC19977, ATCC 19977 WT, Table 5 (Example 3), read-out: MIC M. abscessus ATCC 19977 WT): 16 µg/mL (≈ 24.9 µM)
MIC (M. abscessus; read-out: MIC M. abscessus engineered Δeis2): 0.5 µg/mL (≈ 0.778 µM)
MIC (M. abscessus; ATCC, Table 4 (Example 3), read-out: MIC M. abscessus ATCC): 16 µg/mL (≈ 24.9 µM)
MIC (M. abscessus; Clin. Isol., Table 4 (Example 3), read-out: MIC M. abscessus Clin. Isol.): 32 µg/mL (≈ 49.8 µM)
effect of the AAC(2′) resistance determinant, in words ([4]; AAC(2′)): not susceptible to deactivation by AAC(2′)
MIC ([4]; read-out: MIC E coli AG106 AAC(2′)): 2 µg/mL (≈ 3.11 µM)
MIC ([4]; read-out: MIC E. coli AAC(2′) AG106): 2 µg/mL (≈ 3.11 µM)
MIC ([4]; read-out: MIC E. coli AAC(2′) pH434): 8 to 16 µg/mL (≈ 12.4 to 24.9 µM)
MIC ([4]; read-out: MIC E. coli AG106 AAC(2′)-Ia): 2 µg/mL (≈ 3.11 µM)
MIC ([4]; read-out: MIC E. coli pGB2armA armA): 8 µg/mL (≈ 12.4 µM)
MIC ([4]; read-out: MIC E. coli pH434 AAC(2′)-Ib): 8 to 16 µg/mL (≈ 12.4 to 24.9 µM)
MIC (P aeruginosa; strain AG220 Pseudomonas aeruginosa ATCC27853, read-out: MIC AG220 P. aerugin): > 64 µg/mL
MIC (E coli wild type; AG006 Wild type, Table 2 (Example 3), read-out: MIC E coli AG006 Wild type): 2 µg/mL (≈ 3.11 µM)
MIC (E coli wild type; AG104 Wild type, Table 2 (Example 3), read-out: MIC E coli AG104 Wild type): 2 to 4 µg/mL (≈ 3.11 to 6.22 µM)
MIC (E coli wild type; ATCC25922, strain AG212 E. coli (ATCC25922), read-out: MIC AG212 E. coli): 4 µg/mL (≈ 6.22 µM)
MIC (E coli wild type; WT, Table 4 (Example 3), read-out: MIC E. coli WT): 2 µg/mL (≈ 3.11 µM)
MIC (E coli wild type; WT, Table 5 (Example 3), read-out: MIC E. coli WT): 2 µg/mL (≈ 3.11 µM)
MIC (E coli wild type; clinical isolate AG001, Table 1 (Example 3), read-out: MIC E coli AG001): 4 to 8 µg/mL (≈ 6.22 to 12.4 µM)
MIC (E coli wild type; clinical isolate AG003, Table 1 (Example 3), read-out: MIC E coli AG003): 4 to 8 µg/mL (≈ 6.22 to 12.4 µM)
MIC (E coli wild type; clinical isolate AG055, Table 1 (Example 3), read-out: MIC E coli AG055): 2 µg/mL (≈ 3.11 µM)
antibacterial activity, in words (E coli wild type): retains most of the activity of the parent
IC50 ([5]; bacterial ribosome, Table 4 (Example 3), read-out: IC50 Bac): 0.12 µM
selectivity for the bacterial ribosome over mitochondrial (wild type, A1555G mutant) and cytosolic ribosomes, in words ([5]; compared with the parent compound): increased selectivity for the bacterial ribosome
MIC ([6]; Klebsiella pneumoniae, read-out: MIC AG215 K. pneumon): 1 to 2 µg/mL (≈ 1.56 to 3.11 µM)
MIC [8]: 2 µg/mL (≈ 3.11 µM)
MIC [7]: 2 µg/mL (≈ 3.11 µM)
MIC (M. smegmatis SZ380; SZ380, read-out: MIC M. smegmatis SZ380 WT, SZ380 WT, Table 5 (Example 3)): 1 µg/mL (≈ 1.56 µM)
MIC (M. smegmatis SZ380; SZ380, read-out: MIC SZ380 M. smegmatis, strain SZ380 Mycobacterium smegmatis): 1 µg/mL (≈ 1.56 µM)
